We go through seven molecules from PubChem BioAssay (NCI).

SMILES strings stand for the structures.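 Interpolation was linear, between the two tested concentrations surrounding the appropriate level; five concentrations were tested over 48 hours in 96-well plates. Definition used: TGI = concentration required for complete inhibition of growth.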

The term TGI denotes the concentration giving total growth inhibition.

Holding throughout (assay): DTP human tumour cell line panel, 48 h
The test system of assay [1] is DU-145 prostate.
Assay [2] deals with EKVX NSCLC.
Assay [3] relates to HOP-92 NSCLC.
Assay [4] has as its system IGROV1 ovarian.
Assay [5] has as its system LOX IMVI melanoma.
In assay [6] the test system is MDA-MB-435.
For assay [7], the system named is MDA-N.
Assay [8] deals with NCI-H226 lung.
Assay [9] has as its system OVCAR-3 ovarian.
Assay [10] has as its system OVCAR-5 ovarian.
Assay [11] relates to RPMI-8226 leukemia.
The test system of assay [12] is SF-268 CNS.
The test system of assay [13] is SK-MEL-5 melanoma.
Assay [14] relates to SNB-19 CNS.
Assay [15] deals with SNB-75 CNS.
Assay [16] deals with U251 CNS.
The subject of assay [17] is UACC-257 melanoma.
The test system of assay [18] is UACC-62 melanoma.
In assay [19] the test system is A498 renal.

For the molecule `CC1=CC(=O)/C(=C/n2c(=S)[nH]c3ccc([N+](=O)[O-])cc32)C(=O)O1`, the TGI in assay [1], in assay [2], in assay [3], in assay [4], in assay [5] and in assay [6] was more than 100 µM throughout. Besides, the total growth inhibition concentration (TGI) in assay [7], in assay [8], in assay [9], in assay [10], in assay [11] and in assay [12] was more than 100 µM each time. Besides, the TGI in assay [13], in [14], in assay [15], in assay [16], in assay [17] and in assay [18] was more than 100 µM each time.
With `O=C(c1ccccc1)C1C[C@H]2CO[C@H](c3ccccc3)N2C1=O` (some centres undefined), the TGI in [1], in assay [2], in assay [3], in [4], in assay [5] and in assay [6] was more than 100 µM throughout. Besides, the total growth inhibition concentration (TGI) in assay [7], in assay [8], in assay [9], in assay [10], in assay [11] and in assay [12] was more than 100 µM throughout. In addition, the concentration for total growth inhibition (TGI) in assay [13], in assay [14], in assay [15], in assay [16], in [17] and in assay [18] was more than 100 µM in each case.
On to `O=C1C=C2CC[C@H]3[C@@H]4CC[C@H](OC(=O)c5cccc6cc7ccccc7nc56)[C@H]4CC[C@@H]3[C@H]2CC1`, for which the concentration for total growth inhibition (TGI) is more than 100 µM in [19]; more than 100 µM in assay [1]; more than 100 µM in assay [2]; more than 100 µM in assay [4]; 29.7 µM in [5]; more than 100 µM in assay [6]. In addition, the TGI in [7], in assay [8], in assay [9], in [10], in [11] and in [12] was more than 100 µM throughout. For the same molecule, the concentration for total growth inhibition (TGI) in [13], in assay [14], in [15], in [16], in assay [17] and in assay [18] was more than 100 µM each time.
Take `O=C1OC(CS(=O)(=O)c2ccccc2)CC1O` (centres undefined): the total growth inhibition concentration (TGI) in [19], in assay [1], in [2], in assay [4], in assay [5] and in assay [6] was more than 100 µM each time. Also, the TGI in assay [7], in assay [8], in [9], in [10], in [11] and in [12] was more than 100 µM throughout. The total growth inhibition concentration (TGI) in assay [13], in [14], in assay [16], in assay [17] and in [18] was more than 100 µM throughout.
Turning to `C=C(CN)CO[Si](C)(C)C(C)(C)C`, the total growth inhibition concentration (TGI) in [19], in assay [1], in [2], in assay [4], in assay [5] and in assay [6] was more than 100 µM in each case. The TGI in assay [7], in assay [8], in assay [9], in assay [10], in assay [11] and in assay [12] was more than 100 µM throughout. Besides, the total growth inhibition concentration (TGI) in assay [13], in assay [14], in assay [15], in assay [16], in assay [17] and in assay [18] was more than 100 µM in each case.
As for `N#CC(c1ccccc1)N(CCOCCOCCN(C(=O)c1cccc2ccccc12)C(C#N)c1ccccc1)C(=O)c1cccc2ccccc12` (centres undefined), the TGI in assay [19], in [1], in assay [2], in assay [4], in [5] and in assay [6] was more than 100 µM in each case. Also, the total growth inhibition concentration (TGI) in assay [7], in assay [8], in assay [9], in [10], in assay [12] and in assay [13] was more than 100 µM in each case. Further, the total growth inhibition concentration (TGI) in assay [14], in assay [15], in assay [16], in [17] and in assay [18] was more than 100 µM each time.
With `CCOC(=O)c1cc(Br)c(-c2onc(C)c2Br)n1C`, the TGI is more than 100 µM in assay [19]; more than 100 µM in [1]; 85.6 µM in assay [2]; more than 100 µM in assay [4]; more than 100 µM in [5]; more than 100 µM in assay [6]. For the same molecule, the concentration for total growth inhibition (TGI) was more than 100 µM in [7]; more than 100 µM in assay [8]; more than 100 µM in [9]; 68.8 µM in assay [10]; more than 100 µM in [11]; more than 100 µM in [12]. The TGI is 32.4 µM in [13]; more than 100 µM in [14]; 53 µM in assay [15]; more than 100 µM in [16]; more than 100 µM in assay [17]; more than 100 µM in [18].
